This note sets out measurements from ChEMBL document CHEMBL1201862, “PubChem BioAssay data set” (2004).

Assay in all cases: NCI anticancer screen, dose series, 48 h
The subject of assay [1] is CAKI-1.
Assay [2] has as its system DU-145.
The subject of assay [3] is EKVX.
In assay [4] the test system is HCT-15.
Assay [5] relates to HOP-92.
The test system of assay [6] is HT-29.
Assay [7] deals with M14.
The test system of assay [8] is MDA-MB-435.
The subject of assay [9] is Malme-3M.
Assay [10] relates to NCI-H226.
For assay [11], the system named is OVCAR-5.
In assay [12] the test system is RPMI-8226.
Assay [13] has as its system RXF 393.
The test system of assay [14] is SF-268.
The subject of assay [15] is SF-295.
For assay [16], the system named is SK-MEL-5.
Assay [17] concerns SK-OV-3.
Assay [18] deals with SNB-75.
In assay [19] the test system is SW-620.
Assay [20] relates to NCI-H460.

The structures appear in SMILES notation.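 Compound exposure: 48 hours, 5 concentrations, 96-well plates. GI50 is the concentration that inhibits growth by half.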 Calls of active or inactive are those of the source. Cut-off read from the data, not from the text of the source: active = GI50 up to about 1.1 µM and inactive = higher.

For the compound `CC(C)(C)/C(O)=C\c1nc2ccc(C(F)(F)F)cc2[nH]c1=O`, the GI50 in [1] was > 100 µM (inactive); in assay [2] it was > 100 µM (inactive); in assay [3], > 100 µM (inactive); in [4], above 100 µM; in assay [5], > 100 µM (inactive); in [6], > 100 µM (inactive). Also, the GI50 in assay [7], in assay [8], in assay [9], in [10], in [11] and in assay [12] was > 100 µM (inactive) each time. Further, the GI50 in assay [13], in [14], in assay [15], in assay [16], in assay [17] and in assay [18] was > 100 µM (inactive) in each case. For the same compound, the GI50 in assay [19] was > 100 µM (inactive).

Consider `OC(c1ccc(Cl)cc1)(c1ccc(Cl)cc1)c1cncnc1`, for which the GI50 is 17.6 µM (inactive) in assay [1]; 24.6 µM (inactive) in assay [2]; 19 µM in assay [4]; 17.4 µM (inactive) in [5]; 16.6 µM (inactive) in [6]; 16.7 µM (inactive) in [7]. Besides, the GI50 in assay [8] was 18.3 µM (inactive); in assay [9] it was 33.7 µM (inactive); in [10], 20.7 µM (inactive); in assay [20] it was 18.2 µM (inactive); in assay [11] it was 18.9 µM (inactive); in assay [12], 27.2 µM (inactive). Besides, the GI50 in [13] was 13.4 µM (inactive); in [15], 19.1 µM (inactive); in assay [16], 13.6 µM (inactive); in [17], > 10 µM (inactive); in [18] it was 21.2 µM (inactive); in [19], 21.1 µM (inactive).

In the case of `COC(OC)C1OCC(n2cc(F)c(=O)[nH]c2=O)C1O` (stereo not given), the GI50 was > 100 µM (inactive) in assay [1]; > 100 µM (inactive) in assay [2]; > 100 µM (inactive) in assay [3]; above 100 µM in [4]; > 100 µM (inactive) in assay [5]; > 100 µM (inactive) in [6]. The GI50 in [7], in [8], in assay [9], in assay [10], in [20] and in [11] was > 100 µM (inactive) each time. The GI50 in [12] is > 100 µM (inactive); in assay [13] it was 42.9 µM (inactive); in assay [14], > 100 µM (inactive); in assay [15], > 100 µM (inactive); in [16], > 100 µM (inactive); in assay [17], > 100 µM (inactive). In addition, the GI50 in assay [18] and in assay [19] was > 100 µM (inactive) in each case.

Turning to `CN(CC1(CO)CCC1)c1cc(Cl)nc(N)n1`, the GI50 is > 100 µM (inactive) in assay [1]; > 100 µM (inactive) in assay [2]; 43.3 µM (inactive) in assay [3]; above 100 µM in assay [4]; > 100 µM (inactive) in assay [5]; > 100 µM (inactive) in [6]. In addition, the GI50 in assay [7], in assay [8], in assay [9], in [10], in assay [20] and in assay [11] was > 100 µM (inactive) in each case. Moreover, the GI50 in assay [12], in [13], in assay [14], in assay [15], in assay [16] and in assay [17] was > 100 µM (inactive) throughout. The GI50 in assay [18] was 78.5 µM (inactive); in [19] it was > 100 µM (inactive).

Take `O/N=C1/CCCc2nonc21`: the GI50 is > 100 µM (inactive) in assay [1]; > 100 µM (inactive) in assay [2]; > 100 µM (inactive) in [3]; above 100 µM in assay [4]; > 100 µM (inactive) in assay [5]; > 100 µM (inactive) in [6]. The GI50 in assay [7], in assay [8], in assay [9], in assay [10], in [20] and in [11] was > 100 µM (inactive) in each case. Moreover, the GI50 in [12], in assay [13], in [14], in assay [15], in [16] and in assay [17] was > 100 µM (inactive) each time. The GI50 in [18] and in assay [19] was > 100 µM (inactive) each time.

Consider `COc1ccccc1N1CCN(CCCNC(=O)c2cc(Cl)c(N)c(Cl)c2)CC1`, for which the GI50 is 88.1 µM (inactive) in assay [2]; > 100 µM (inactive) in assay [3]; 18.5 µM in assay [4]; 4.36 µM (inactive) in [5]; 24.1 µM (inactive) in [6]; 19.4 µM (inactive) in [7]. For the same compound, the GI50 in assay [8] was 40.2 µM (inactive); in assay [9], 18.8 µM (inactive); in assay [10], 28.4 µM (inactive); in assay [20], 23.3 µM (inactive); in assay [11] it was 44.6 µM (inactive); in [12], 18.7 µM (inactive). Besides, the GI50 was 27 µM (inactive) in [13]; 77.4 µM (inactive) in assay [14]; 16.3 µM (inactive) in [15]; 18.2 µM (inactive) in assay [16]; 69.8 µM (inactive) in assay [17]; 59.3 µM (inactive) in [18]. In addition, the GI50 in assay [19] is 37.5 µM (inactive).

Regarding `c1ccc(CNCCCNCCCCNCCCNCc2ccccc2)cc1`, the GI50 in [1] is 10.3 µM (inactive); in assay [2], 12.8 µM (inactive); in assay [3], 9.42 µM (inactive); in assay [4], 15.8 µM; in [5], 1.42 µM (inactive); in assay [6], 1.92 µM (inactive). Besides, the GI50 was 5.46 µM (inactive) in assay [7]; 4.22 µM (inactive) in [8]; 2.02 µM (inactive) in assay [9]; 4.68 µM (inactive) in [10]; 6.27 µM (inactive) in assay [20]; 5.22 µM (inactive) in assay [11]. Also, the GI50 in [12] is 2.22 µM (inactive); in assay [13], 12.4 µM (inactive); in [14] it was 12.2 µM (inactive); in assay [15], 15.1 µM (inactive); in [16], 7.85 µM (inactive); in assay [17], 15.7 µM (inactive). The GI50 in assay [18] is 8.91 µM (inactive); in assay [19], 1.8 µM (inactive).

Turning to `O=C1C[C@@H](c2ccccc2)O[C@@H](c2ccccc2)C1`, the GI50 in [1] was > 100 µM (inactive); in assay [2], > 100 µM (inactive); in assay [3], > 100 µM (inactive); in assay [4], above 100 µM; in [5], > 100 µM (inactive); in [6] it was > 100 µM (inactive). In addition, the GI50 in [7], in assay [8], in assay [9], in [10], in assay [20] and in assay [11] was > 100 µM (inactive) in each case. Further, the GI50 in [12], in assay [13], in assay [14], in assay [15], in [16] and in assay [17] was > 100 µM (inactive) throughout. For the same compound, the GI50 in assay [18] and in assay [19] was > 100 µM (inactive) throughout.

Regarding `Cc1ccc(Nc2nc3[nH]ccc3c(=O)[nH]2)cc1`, the GI50 in [1] is 85.5 µM (inactive); in [2], 53.6 µM (inactive); in assay [3] it was 76.2 µM (inactive); in assay [4] it was 87.5 µM; in assay [5], > 100 µM (inactive); in assay [6] it was 61.9 µM (inactive). For the same compound, the GI50 in [7], in [8], in assay [9], in assay [10], in assay [20] and in [11] was > 100 µM (inactive) throughout. In addition, the GI50 is > 100 µM (inactive) in assay [12]; 14.5 µM (inactive) in assay [13]; 65.3 µM (inactive) in assay [14]; 72.9 µM (inactive) in assay [15]; > 100 µM (inactive) in assay [16]; > 100 µM (inactive) in assay [17]. Besides, the GI50 in assay [18] is 2.24 µM (inactive); in [19], > 100 µM (inactive).

`O=C1/C(=C\c2ccco2)Oc2ccccc21`: the GI50 in assay [1] was > 100 µM (inactive); in [2], > 100 µM (inactive); in assay [3], 42.9 µM (inactive); in assay [4], above 100 µM; in [5] it was > 100 µM (inactive); in assay [6], > 100 µM (inactive). Also, the GI50 in assay [7] is > 100 µM (inactive); in assay [8], > 100 µM (inactive); in assay [10], > 100 µM (inactive); in assay [20], > 100 µM (inactive); in assay [11] it was > 100 µM (inactive); in assay [12] it was 89.5 µM (inactive). For the same compound, the GI50 in assay [13], in assay [14], in [15], in assay [16], in assay [17] and in assay [18] was > 100 µM (inactive) in each case. Besides, the GI50 in assay [19] is > 100 µM (inactive).
